Experimental data reported in patent US20230276831A1, “Food/Beverage Article” (Kikkoman Corporation, priority 2020, published 2023).

What was measured:
Type in all cases: cell-based
[1] = tested on: Lactobacillus rennini DSM 20253; assay: Antimicrobial action of licoricidin in liquid seasoning (1), lactic acid bacteria A; details: conclusion of Test Example 4; various salt concentration and various alcohol concentrations; lactic acid bacteria A to D
Procedure: Commercially available whole soybean soy sauce (produced by Kikkoman Corporation) was electrodialyzed and then concentrated under reduced pressure to obtain soy sauce at a salt concentration of 0% (w/v) and an alcohol concentration of 0% (v/v). Then, salt and/or alcohol was added to the above-mentioned obtained soy sauce, and the mixture was heat-treated to produce soy sauces at salt concentrations and alcohol concentrations shown in the following Table 5. The pHs of the soy sauces were 4.9 to 5.0. […]
Licoricidin (produced by ChemFaces) was added to each of the liquid seasonings produced in the above-mentioned (1) to concentrations of 1 ppm, 5 ppm, 10 ppm, 25 ppm, and 50 ppm. Lactic acid bacteria described in the following Table 9 were then added to 10^6 to 10^7 cells/mL and cultured at 30° C. for 7 days. After the culture, the number of lactic acid bacteria was measured using the GAM agar medium “Nissui”. Liquid seasoning to which licoricidin was not added was used as a control group, and the antimicrobial activity was evaluated in comparison with the number of lactic acid bacteria in the control group. The evaluation was performed using the criterion shown below. […]

[2] = tested on: Lactobacillus acidipiscis NBRC 102163; assay: Antimicrobial action of licoricidin in liquid seasoning (1), lactic acid bacteria C; set-up: key: A: The bacterial count decreases to less than 10% of the bacterial count of the control group.; B: The bacterial count decreases to 10% or more and less than 50% of the bacterial count of the control group.; C: The bacterial count decreases to 50% or more and less than 100% of the bacterial count of control group.; D: The bacterial count is the same as the bacterial count of the control group
Procedure: Commercially available whole soybean soy sauce (produced by Kikkoman Corporation) was electrodialyzed and then concentrated under reduced pressure to obtain soy sauce at a salt concentration of 0% (w/v) and an alcohol concentration of 0% (v/v). Then, salt and/or alcohol was added to the above-mentioned obtained soy sauce, and the mixture was heat-treated to produce soy sauces at salt concentrations and alcohol concentrations shown in the following Table 5. The pHs of the soy sauces were 4.9 to 5.0.
Specifically, components contained in dried bonito was extracted with alcohol and water; sugar, salt, and seasonings were blended with the obtained extract; and the resulting mixture was heated to produce bonito stock. The salt concentration of the obtained bonito stock was 0.2% (w/v), the alcohol concentration was 0.15% (v/v), and the pH was 6.1.
Specifically, Koikuchi soy sauce (produced by Kikkoman Corporation), granulated sugar, potato starch, and water were blended in amounts shown in following Table 7, and the resulting mixture was heated to produce sauce. The salt concentration of the obtained sauce was 5.3% (w/v), the alcohol concentration was 0.8% (v/v), and the pH was 5.0.
Specifically, the components contained in dried bonito was extracted with water; Koikuchi soy sauce (produced by Kikkoman Corporation), sugar, and salt were blended with the obtained extract; and the resulting mixture was heated to produce Japanese seasoned soup stock. The salt concentration of the obtained Japanese seasoned soup stock was 3% (w/v), the alcohol concentration was 0.4% (v/v), and the pH was 5.5.
Licoricidin (produced by ChemFaces) was added to each of the liquid seasonings produced in the above-mentioned (1) to concentrations of 1 ppm, 5 ppm, 10 ppm, 25 ppm, and 50 ppm. Lactic acid bacteria described in the following Table 9 were then added to 10^6 to 10^7 cells/mL and cultured at 30° C. for 7 days. After the culture, the number of lactic acid bacteria was measured using the GAM agar medium “Nissui”. Liquid seasoning to which licoricidin was not added was used as a control group, and the antimicrobial activity was evaluated in comparison with the number of lactic acid bacteria in the control group. The evaluation was performed using the criterion shown below.
• A: The bacterial count decreases to less than 10% of the bacterial count of the control group. • B: The bacterial count decreases to 10% or more and less than 50% of the bacterial count of the control group. • C: The bacterial count decreases to 50% or more and less than 100% of the bacterial count of control group. • D: The bacterial count is the same as the bacterial count of the control group.

[3] = tested on: Lactobacillus rennini (DSM 20253); assay: Antimicrobial action of licoricidin in liquid dressing, lightly-pickled vegetables and cooking vinegar (Test Example 9); details: conclusion of Test Example 9
Description: Specifically, Koikuchi soy sauce (produced by Kikkoman Corporation), table vinegar, mirin, granulated sugar, kelp stock, and water were blended in amounts shown in the following Table 24, and the resulting mixture was heated to produce liquid dressing. The salt concentration of the obtained liquid dressing was 2.6% (w/v), the alcohol concentration was 0.8% (v/v), the pH was 4.2.
Specifically, Usukuchi soy sauce (produced by Kikkoman Corporation), table vinegar, corn syrup, isomerized sugar, salt, granulated sugar, sodium glutamate (MSG), lemon fruit juice, kelp stock, and water were blended in amounts shown in the following Table 25, and the mixture was heated to produce seasoning liquid for lightly-pickled vegetables. Chinese cabbages were fully soaked therein to produce lightly-pickled vegetables. […]
Licoricidin (produced by ChemFaces) was added to each of the above-mentioned produced liquid dressing, lightly-pickled vegetables, and cooking vinegar to concentrations of 1 ppm, 5 ppm, 10 ppm, 25 ppm, and 50 ppm. […] After the culture, the number of lactic acid bacteria was measured using the GAM agar medium “Nissui”. The liquid dressing, the lightly-pickled vegetables, and the cooking vinegar to which licoricidin was not added were used as respective control groups, and the antimicrobial activity was evaluated in comparison with the number of lactic acid bacteria in the control group. […]

## COc1c(CC=C(C)C)c(O)cc2c1C[C@H](c1ccc(O)c(CC=C(C)C)c1O)CO2 [Licoricidin, 4-[(R)-7-hydroxy-5-methoxy-6-(3-methyl-2-butenyl)chroman-3-yl]-2-(3-methyl-2-butenyl)-1,3-benzenediol]
[1]
  Antimicrobial activity to various lactic acid bacteria: exhibited antimicrobial activity
[2]; Bonito stock (salt 0.2% (w/v), alcohol 0.15% (v/v), pH 6.1), licoricidin 1 ppm
  Antimicrobial activity: C (The bacterial count decreases to 50% or more and less than 100% of the bacterial count of control group.)
[2]; Bonito stock (salt 0.2% (w/v), alcohol 0.15% (v/v), pH 6.1), licoricidin 5 ppm
  Antimicrobial activity: A (The bacterial count decreases to less than 10% of the bacterial count of the control group.)
[2]; Bonito stock (salt 0.2% (w/v), alcohol 0.15% (v/v), pH 6.1), licoricidin 10 ppm
  Antimicrobial activity: A (The bacterial count decreases to less than 10% of the bacterial count of the control group.)
[2]; Bonito stock (salt 0.2% (w/v), alcohol 0.15% (v/v), pH 6.1), licoricidin 25 ppm
  Antimicrobial activity: A (The bacterial count decreases to less than 10% of the bacterial count of the control group.)
[2]; Bonito stock (salt 0.2% (w/v), alcohol 0.15% (v/v), pH 6.1), licoricidin 50 ppm
  Antimicrobial activity: A (The bacterial count decreases to less than 10% of the bacterial count of the control group.)
[2]; Japanese seasoned soup stock (salt 3% (w/v), alcohol 0.4% (v/v), pH 5.5), licoricidin 1 ppm
  Antimicrobial activity: D
[2]; Japanese seasoned soup stock (salt 3% (w/v), alcohol 0.4% (v/v), pH 5.5), licoricidin 5 ppm
  Antimicrobial activity: A (The bacterial count decreases to less than 10% of the bacterial count of the control group.)
[2]; Japanese seasoned soup stock (salt 3% (w/v), alcohol 0.4% (v/v), pH 5.5), licoricidin 10 ppm
  Antimicrobial activity: A (The bacterial count decreases to less than 10% of the bacterial count of the control group.)
[2]; Japanese seasoned soup stock (salt 3% (w/v), alcohol 0.4% (v/v), pH 5.5), licoricidin 25 ppm
  Antimicrobial activity: A (The bacterial count decreases to less than 10% of the bacterial count of the control group.)
[2]; Japanese seasoned soup stock (salt 3% (w/v), alcohol 0.4% (v/v), pH 5.5), licoricidin 50 ppm
  Antimicrobial activity: A (The bacterial count decreases to less than 10% of the bacterial count of the control group.)
[2]; Sauce (salt 5.3% (w/v), alcohol 0.8% (v/v), pH 5.0), licoricidin 1 ppm
  Antimicrobial activity: B (The bacterial count decreases to 10% or more and less than 50% of the bacterial count of the control group.)
[2]; Sauce (salt 5.3% (w/v), alcohol 0.8% (v/v), pH 5.0), licoricidin 5 ppm
  Antimicrobial activity: B (The bacterial count decreases to 10% or more and less than 50% of the bacterial count of the control group.)
[2]; Sauce (salt 5.3% (w/v), alcohol 0.8% (v/v), pH 5.0), licoricidin 10 ppm
  Antimicrobial activity: A (The bacterial count decreases to less than 10% of the bacterial count of the control group.)
[2]; Sauce (salt 5.3% (w/v), alcohol 0.8% (v/v), pH 5.0), licoricidin 25 ppm
  Antimicrobial activity: A (The bacterial count decreases to less than 10% of the bacterial count of the control group.)
[2]; Sauce (salt 5.3% (w/v), alcohol 0.8% (v/v), pH 5.0), licoricidin 50 ppm
  Antimicrobial activity: A (The bacterial count decreases to less than 10% of the bacterial count of the control group.)
[2]; Soy sauce, salt 0% (w/v), alcohol 0% (v/v), licoricidin 1 ppm
  Antimicrobial activity: C (The bacterial count decreases to 50% or more and less than 100% of the bacterial count of control group.)
[2]; Soy sauce, salt 0% (w/v), alcohol 0% (v/v), licoricidin 5 ppm
  Antimicrobial activity: C (The bacterial count decreases to 50% or more and less than 100% of the bacterial count of control group.)
[2]; Soy sauce, salt 0% (w/v), alcohol 0% (v/v), licoricidin 10 ppm
  Antimicrobial activity: B (The bacterial count decreases to 10% or more and less than 50% of the bacterial count of the control group.)
[2]; Soy sauce, salt 0% (w/v), alcohol 0% (v/v), licoricidin 25 ppm
  Antimicrobial activity: A (The bacterial count decreases to less than 10% of the bacterial count of the control group.)
[2]; Soy sauce, salt 0% (w/v), alcohol 0% (v/v), licoricidin 50 ppm
  Antimicrobial activity: A (The bacterial count decreases to less than 10% of the bacterial count of the control group.)
[2]; Soy sauce, salt 4% (w/v), alcohol 0% (v/v), licoricidin 1 ppm
  Antimicrobial activity: C (The bacterial count decreases to 50% or more and less than 100% of the bacterial count of control group.)
[2]; Soy sauce, salt 4% (w/v), alcohol 0% (v/v), licoricidin 5 ppm
  Antimicrobial activity: A (The bacterial count decreases to less than 10% of the bacterial count of the control group.)
[2]; Soy sauce, salt 4% (w/v), alcohol 0% (v/v), licoricidin 10 ppm
  Antimicrobial activity: A (The bacterial count decreases to less than 10% of the bacterial count of the control group.)
[2]; Soy sauce, salt 4% (w/v), alcohol 0% (v/v), licoricidin 25 ppm
  Antimicrobial activity: A (The bacterial count decreases to less than 10% of the bacterial count of the control group.)
[2]; Soy sauce, salt 4% (w/v), alcohol 0% (v/v), licoricidin 50 ppm
  Antimicrobial activity: A (The bacterial count decreases to less than 10% of the bacterial count of the control group.)
[2]; Soy sauce, salt 8% (w/v), alcohol 0% (v/v), licoricidin 1 ppm
  Antimicrobial activity: D
[2]; Soy sauce, salt 8% (w/v), alcohol 0% (v/v), licoricidin 5 ppm
  Antimicrobial activity: A (The bacterial count decreases to less than 10% of the bacterial count of the control group.)
[2]; Soy sauce, salt 8% (w/v), alcohol 0% (v/v), licoricidin 10 ppm
  Antimicrobial activity: A (The bacterial count decreases to less than 10% of the bacterial count of the control group.)
[2]; Soy sauce, salt 8% (w/v), alcohol 0% (v/v), licoricidin 25 ppm
  Antimicrobial activity: A (The bacterial count decreases to less than 10% of the bacterial count of the control group.)
[2]; Soy sauce, salt 8% (w/v), alcohol 0% (v/v), licoricidin 50 ppm
  Antimicrobial activity: A (The bacterial count decreases to less than 10% of the bacterial count of the control group.)
[2]; Soy sauce, salt 12% (w/v), alcohol 0% (v/v), licoricidin 1 ppm
  Antimicrobial activity: B (The bacterial count decreases to 10% or more and less than 50% of the bacterial count of the control group.)
[2]; Soy sauce, salt 12% (w/v), alcohol 0% (v/v), licoricidin 5 ppm
  Antimicrobial activity: A (The bacterial count decreases to less than 10% of the bacterial count of the control group.)
[2]; Soy sauce, salt 12% (w/v), alcohol 0% (v/v), licoricidin 10 ppm
  Antimicrobial activity: A (The bacterial count decreases to less than 10% of the bacterial count of the control group.)
[2]; Soy sauce, salt 12% (w/v), alcohol 0% (v/v), licoricidin 25 ppm
  Antimicrobial activity: A (The bacterial count decreases to less than 10% of the bacterial count of the control group.)
[2]; Soy sauce, salt 12% (w/v), alcohol 0% (v/v), licoricidin 50 ppm
  Antimicrobial activity: A (The bacterial count decreases to less than 10% of the bacterial count of the control group.)
[3]
  Antimicrobial activity to lactic acid bacteria in the various liquid seasonings and the food: exhibited antimicrobial activity
